In patent publication US20230265151A1, “GIP/GLP1 CO-AGONIST COMPOUNDS” (priority 2020, published 2023):
Like-named read-outs stand apart in the source and are kept apart here.

Legend:
Format in all cases: cell-based
hGIPR = target: T1, hGIPR (Homo sapiens, UniProt P48546); assay: Functional cAMP formation (HTRF) in HEK-293 clonal cells expressing hGIPR, 0.1% bovine casein, without or with 1.0% human serum albumin; settings: for Emax: percent of maximal response to GIP(1-42)NH2; for EC50: cAMP
T1 construct: expressed in transfected cells
T1 sequence (P48546 22-466): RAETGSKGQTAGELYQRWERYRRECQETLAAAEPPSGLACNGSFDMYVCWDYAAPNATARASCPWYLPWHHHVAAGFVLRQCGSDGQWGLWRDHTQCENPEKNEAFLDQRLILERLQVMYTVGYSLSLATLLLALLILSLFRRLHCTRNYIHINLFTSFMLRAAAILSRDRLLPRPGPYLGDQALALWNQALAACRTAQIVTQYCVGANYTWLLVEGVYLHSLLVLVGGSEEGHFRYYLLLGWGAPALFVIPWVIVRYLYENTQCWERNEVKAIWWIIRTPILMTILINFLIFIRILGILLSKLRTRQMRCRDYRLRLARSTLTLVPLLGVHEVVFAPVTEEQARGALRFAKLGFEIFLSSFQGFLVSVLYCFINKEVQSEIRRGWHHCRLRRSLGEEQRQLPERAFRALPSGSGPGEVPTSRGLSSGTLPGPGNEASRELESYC
Procedure, shortened: (§1)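 Readings of the HTRF 665/620 nm ratio, which falls as cAMP rises, were converted to nM cAMP using a standard curve after 30 min peptide exposure at 37° C.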

hGLP-1R = hGLP-1R (Homo sapiens, UniProt P43220); assay: Functional cAMP formation (HTRF) in HEK-293 clonal cells expressing hGLP-1R, 0.1% bovine casein, without or with 1.0% human serum albumin; set-up: expressed in transfected cells; settings: for Emax: percent of maximal response to GLP-1(7-36)NH2; for EC50: cAMP
hGLP-1R, sequence (P43220 24-463): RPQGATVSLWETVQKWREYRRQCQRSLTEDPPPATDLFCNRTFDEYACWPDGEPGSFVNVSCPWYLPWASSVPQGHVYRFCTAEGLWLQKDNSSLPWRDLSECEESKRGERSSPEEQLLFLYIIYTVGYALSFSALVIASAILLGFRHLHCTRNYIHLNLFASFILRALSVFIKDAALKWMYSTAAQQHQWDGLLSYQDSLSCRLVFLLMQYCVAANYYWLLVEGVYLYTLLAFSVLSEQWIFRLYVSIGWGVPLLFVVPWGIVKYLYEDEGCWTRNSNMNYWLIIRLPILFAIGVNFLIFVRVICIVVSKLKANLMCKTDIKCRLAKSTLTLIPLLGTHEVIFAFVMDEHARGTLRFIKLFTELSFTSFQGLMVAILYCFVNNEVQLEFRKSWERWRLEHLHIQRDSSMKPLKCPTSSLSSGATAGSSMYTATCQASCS
Procedure, shortened: as §1

hGCGR = target: T2, hGCGR (Homo sapiens, UniProt P47871); assay: Functional cAMP formation (HTRF) in HEK-293 clonal cells expressing hGCGR, 0.1% bovine casein, without or with 1.0% human serum albumin; settings: cAMP, 37° C.
T2 construct: expressed in transfected cells
T2 sequence (P47871 26-477): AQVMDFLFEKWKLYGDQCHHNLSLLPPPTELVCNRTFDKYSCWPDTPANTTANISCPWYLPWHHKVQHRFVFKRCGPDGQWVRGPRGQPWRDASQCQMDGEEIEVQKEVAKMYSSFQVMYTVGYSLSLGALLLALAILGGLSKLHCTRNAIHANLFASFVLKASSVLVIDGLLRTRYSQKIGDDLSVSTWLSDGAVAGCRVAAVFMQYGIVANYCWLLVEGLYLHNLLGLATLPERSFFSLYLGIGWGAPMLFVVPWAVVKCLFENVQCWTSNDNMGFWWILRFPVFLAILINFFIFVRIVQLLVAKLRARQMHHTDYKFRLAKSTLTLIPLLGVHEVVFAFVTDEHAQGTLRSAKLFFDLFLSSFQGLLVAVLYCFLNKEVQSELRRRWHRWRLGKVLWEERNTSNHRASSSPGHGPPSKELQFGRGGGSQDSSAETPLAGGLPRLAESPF
Procedure, shortened: as §1

[1] = HEK293, cAMP, 37° C., 0.1% bovine casein and 1.0% human serum albumin, read-out: hGIPR Emax, % ± SEM
[2] = 37° C., 0.1% bovine casein (no human serum albumin), geometric mean, read-out: hGIPR EC50, nM (SEM, n)
[3] = HEK293, cAMP, 37° C., 0.1% bovine casein and 1.0% human serum albumin, read-out: hGLP-1R Emax, % ± SEM
[4] = HEK293, cAMP, 37° C., 0.1% bovine casein, arithmetic mean, read-out: hGLP-1R Emax, % ± SEM
[5] = 37° C., 0.1% bovine casein (no human serum albumin), geometric mean, read-out: hGLP-1R EC50, nM (SEM, n)
[6] = 0.1% bovine casein (no human serum albumin), geometric mean, read-out: hGCGR EC50, nM (SEM, n)
[7] = 0.1% bovine casein and 1.0% human serum albumin, geometric mean (SEM, n), read-out: hGCGR EC50, nM (SEM, n)
[8] = HEK293, cAMP, 37° C., 0.1% bovine casein, arithmetic mean, read-out: hGIPR Emax, % ± SEM

| Structure (SMILES) | Emax (hGIPR; [1]) [%] | EC50 (hGIPR; [2]) [nM] | Emax (hGLP-1R; [3]) [%] | Emax (hGLP-1R; [4]) [%] | EC50 (hGLP-1R; [5]) [nM] | EC50 (hGCGR; [6]) [nM] | EC50 (hGCGR; [7]) [nM] | Emax (hGIPR; [8]) [%] | Emax (hGIPR; HEK293, read-out: hGIPR Emax, % ± SEM, cAMP, 37° C., 0.1% bovine casein and 1.0% human serum albumin) [%] | Emax (hGIPR; HEK293, read-out: hGIPR Emax, % ± SEM, cAMP, 37° C., 0.1% bovine casein, arithmetic mean) [%] | EC50 (hGIPR; hGIPR EC50, nM (SEM, n), 37° C., 0.1% bovine casein (no human serum albumin), geometric mean) [nM] | EC50 (hGIPR; hGIPR EC50, nM (SEM, n), 37° C., 0.1% bovine casein and 1.0% human serum albumin, geometric mean (SEM, n)) [nM] | Emax (hGLP-1R; HEK293, read-out: hGLP-1R Emax, % ± SEM, cAMP, 37° C., 0.1% bovine casein and 1.0% human serum albumin) [%] | EC50 (hGLP-1R; hGLP-1R EC50, nM (SEM, n), 37° C., 0.1% bovine casein (no human serum albumin), geometric mean) [nM] | EC50 (hGLP-1R; hGLP-1R EC50, nM (SEM, n), 37° C., 0.1% bovine casein and 1.0% human serum albumin, geometric mean (SEM, n)) [nM] | EC50 (hGCGR; hGCGR EC50, nM (SEM, n), 0.1% bovine casein (no human serum albumin), geometric mean) [nM] | EC50 (hGCGR; hGCGR EC50, nM (SEM, n), 0.1% bovine casein and 1.0% human serum albumin, geometric mean (SEM, n)) [nM] |
| --- | --- | --- | --- | --- | --- | --- | --- | --- | --- | --- | --- | --- | --- | --- | --- | --- | --- |
| CC[C@H](C)[C@H](NC(=O)[C@H](CC(C)C)NC(=O)[C@](C)(Cc1ccc(O)cc1)NC(=O)[C@@H](CCC(=O)O)NC(=O)[C@@H](NC(=O)[C@H](Cc1ccccc1)NC(=O)[C@H](CCC(=O)O)NC(=O)C(C)(C)NC(=O)[C@H](CCC(N)=O)NC(=O)[C@H](C)NC(=O)[C@H](CCCCNC(=O)COCCOCCNC(=O)CC[C@H](NC(=O)CCCCCCCCCCCCC(=O)O)C(=O)O)NC(=O)[C@H](CCCN)NC(=O)[C@H](CC(=O)O)NC(=O)[C@H](CC(C)C)NC(=O)[C@](C)(CC(C)C)NC(=O)[C@@H](NC(=O)C(C)(C)NC(=O)[C@@H](NC(=O)[C@H](CC(=O)O)NC(=O)[C@H](CO)NC(=O)[C@@H](NC(=O)[C@](C)(Cc1ccccc1F)NC(=O)[C@@H](NC(=O)CNC(=O)[C@H](CCC(=O)O)NC(=O)C(C)(C)NC(=O)[C@@H](N)Cc1ccc(O)cc1)[C@@H](C)O)[C@@H](C)O)C(C)C)[C@@H](C)CC)[C@@H](C)CC)C(=O)N[C@@H](CCCCNC(=O)COCCOCCNC(=O)CC[C@H](NC(=O)CCCCCCCCCCCCC(=O)O)C(=O)O)C(=O)NCC(=O)NCC(=O)N1CCC[C@H]1C(=O)N[C@@H](CO)C(=O)N[C@@H](CO)C(=O)NCC(=O)N[C@@H](C)C(=O)N1CCC[C@H]1C(=O)N1CCC[C@H]1C(=O)N1CCC[C@H]1C(=O)N[C@@H](CO)C(N)=O [Example 399] | 86.8 | 0.0186 | 89.7 | 91.9 | 0.259 | > 9950 | > 9950 |  |  |  |  |  |  |  |  |  |  |
| CC[C@H](C)[C@H](NC(=O)[C@H](CCCN)NC(=O)[C@H](CC(=O)O)NC(=O)[C@H](CC(C)C)NC(=O)[C@](C)(CC(C)C)NC(=O)[C@@H](NC(=O)C(C)(C)NC(=O)[C@@H](NC(=O)[C@H](CC(=O)O)NC(=O)[C@H](CO)NC(=O)[C@@H](NC(=O)[C@](C)(Cc1ccccc1F)NC(=O)[C@@H](NC(=O)CNC(=O)[C@H](CCC(=O)O)NC(=O)C(C)(C)NC(=O)[C@@H](N)Cc1ccc(O)cc1)[C@@H](C)O)[C@@H](C)O)C(C)C)[C@@H](C)CC)C(=O)N[C@@H](C)C(=O)N[C@@H](CCC(N)=O)C(=O)NC(C)(C)C(=O)N[C@@H](CCC(=O)O)C(=O)N[C@@H](Cc1ccccc1)C(=O)N[C@H](C(=O)N[C@@H](CCCCNC(=O)COCCOCCNC(=O)CC[C@H](NC(=O)CCCCCCCCCCCCC(=O)O)C(=O)O)C(=O)N[C@@](C)(Cc1ccc(O)cc1)C(=O)N[C@@H](CC(C)C)C(=O)N[C@H](C(=O)N[C@@H](CCCCNC(=O)COCCOCCNC(=O)CC[C@H](NC(=O)CCCCCCCCCCCCC(=O)O)C(=O)O)C(=O)NCC(=O)NCC(=O)N1CCC[C@H]1C(=O)N[C@@H](CO)C(=O)N[C@@H](CO)C(=O)NCC(=O)N[C@@H](C)C(=O)N1CCC[C@H]1C(=O)N1CCC[C@H]1C(=O)N1CCC[C@H]1C(=O)N[C@@H](CO)C(N)=O)[C@@H](C)CC)[C@@H](C)CC [Example 400] | 83.2 | 0.0821 | 109 |  | 0.708 | > 9950 | > 9950 | 98.1 |  |  |  |  |  |  |  |  |  |
| CC[C@H](C)[C@H](NC(=O)[C@H](CC(C)C)NC(=O)[C@](C)(Cc1ccc(O)cc1)NC(=O)[C@H](CCCCNC(=O)COCCOCCNC(=O)COCCOCCNC(=O)CC[C@H](NC(=O)CCCCCCCCCCCCC(=O)O)C(=O)O)NC(=O)[C@@H](NC(=O)[C@H](Cc1ccccc1)NC(=O)[C@H](CCCN)NC(=O)C(C)(C)NC(=O)[C@H](CCC(N)=O)NC(=O)[C@H](C)NC(=O)[C@H](CCC(N)=O)NC(=O)[C@H](CCCN)NC(=O)[C@H](CC(=O)O)NC(=O)[C@H](CC(C)C)NC(=O)[C@](C)(CC(C)C)NC(=O)[C@@H](NC(=O)C(C)(C)NC(=O)[C@H](Cc1ccc(O)cc1)NC(=O)[C@H](CC(=O)O)NC(=O)[C@H](CO)NC(=O)[C@@H](NC(=O)[C@](C)(Cc1ccccc1F)NC(=O)[C@@H](NC(=O)CNC(=O)[C@H](CCC(=O)O)NC(=O)C(C)(C)NC(=O)[C@@H](N)Cc1ccc(O)cc1)[C@@H](C)O)[C@@H](C)O)[C@@H](C)CC)[C@@H](C)CC)C(=O)N[C@@H](CCCCNC(=O)COCCOCCNC(=O)COCCOCCNC(=O)CC[C@H](NC(=O)CCCCCCCCCCCCC(=O)O)C(=O)O)C(=O)NCC(=O)NCC(=O)N1CCC[C@H]1C(=O)N[C@@H](CO)C(=O)N[C@@H](CO)C(=O)NCC(=O)N[C@@H](C)C(=O)N1CCC[C@H]1C(=O)N1CCC[C@H]1C(=O)N1CCC[C@H]1C(=O)N[C@@H](CO)C(N)=O [Example 401] | 83 | 0.0112 |  |  | 0.235 | > 9950 | > 9950 | 98.9 |  |  |  |  |  |  |  |  |  |
| CC[C@H](C)[C@H](NC(=O)[C@H](CC(C)C)NC(=O)[C@](C)(Cc1ccc(O)cc1)NC(=O)[C@H](CCCCNC(=O)COCCOCCNC(=O)COCCOCCNC(=O)CC[C@H](NC(=O)CCCCCCCCCOc1ccc(C(=O)O)cc1)C(=O)O)NC(=O)[C@@H](NC(=O)[C@H](Cc1ccccc1)NC(=O)[C@H](CCC(=O)O)NC(=O)C(C)(C)NC(=O)[C@H](CCC(N)=O)NC(=O)[C@H](C)NC(=O)[C@H](CCC(N)=O)NC(=O)[C@H](CCCN)NC(=O)[C@H](CC(=O)O)NC(=O)[C@H](CC(C)C)NC(=O)[C@](C)(CC(C)C)NC(=O)[C@@H](NC(=O)C(C)(C)NC(=O)[C@H](Cc1ccc(O)cc1)NC(=O)[C@H](CC(=O)O)NC(=O)[C@H](CO)NC(=O)[C@@H](NC(=O)[C@](C)(Cc1ccccc1F)NC(=O)[C@@H](NC(=O)CNC(=O)[C@H](CCC(=O)O)NC(=O)C(C)(C)NC(=O)[C@@H](N)Cc1ccc(O)cc1)[C@@H](C)O)[C@@H](C)O)[C@@H](C)CC)[C@@H](C)CC)C(=O)N[C@@H](CCCCNC(=O)COCCOCCNC(=O)COCCOCCNC(=O)CC[C@H](NC(=O)CCCCCCCCCOc1ccc(C(=O)O)cc1)C(=O)O)C(=O)NCC(=O)NCC(=O)N1CCC[C@H]1C(=O)N[C@@H](CO)C(=O)N[C@@H](CO)C(=O)NCC(=O)N[C@@H](C)C(=O)N1CCC[C@H]1C(=O)N1CCC[C@H]1C(=O)N1CCC[C@H]1C(=O)N[C@@H](CO)C(N)=O [Example 402] |  |  |  |  |  |  |  |  | 84.5 | 98.9 | 0.0132 | 1.11 | 110 | 0.221 | 13.5 | > 9950 | > 9950 |
| CC[C@H](C)[C@H](NC(=O)[C@H](CC(C)C)NC(=O)[C@](C)(Cc1ccc(O)cc1)NC(=O)[C@@H](CCC(=O)O)NC(=O)[C@@H](NC(=O)[C@H](Cc1ccccc1)NC(=O)[C@H](CCCCNC(=O)CCOCCOCCOCCNC(=O)CC[C@H](NC(=O)CCCCCCCCCCCCC(=O)O)C(=O)O)NC(=O)C(C)(C)NC(=O)[C@H](CCC(N)=O)NC(=O)[C@H](C)NC(=O)[C@H](CCCCNC(=O)CCOCCOCCOCCNC(=O)CC[C@H](NC(=O)CCCCCCCCCCCCC(=O)O)C(=O)O)NC(=O)[C@H](CCCN)NC(=O)[C@H](CC(=O)O)NC(=O)[C@H](CC(C)C)NC(=O)[C@](C)(CC(C)C)NC(=O)[C@@H](NC(=O)C(C)(C)NC(=O)[C@H](Cc1ccncc1)NC(=O)[C@H](CC(=O)O)NC(=O)[C@H](CO)NC(=O)[C@@H](NC(=O)[C@](C)(Cc1ccccc1F)NC(=O)[C@@H](NC(=O)CNC(=O)[C@H](CCC(=O)O)NC(=O)C(C)(C)NC(=O)[C@@H](N)Cc1ccc(O)cc1)[C@@H](C)O)[C@@H](C)O)[C@@H](C)CC)[C@@H](C)CC)C(=O)N[C@@H](CCC(=O)O)C(=O)NCC(=O)NCC(=O)N1CCC[C@H]1C(=O)N[C@@H](CO)C(=O)N[C@@H](CO)C(=O)NCC(=O)N[C@@H](C)C(=O)N1CCC[C@H]1C(=O)N1CCC[C@H]1C(=O)N1CCC[C@H]1C(=O)N[C@@H](CO)C(N)=O [Example 404] | 77.3 | 0.014 |  | 94.3 | 0.632 | > 9950 | > 9950 |  |  |  |  |  |  |  |  |  |  |
